Data reported in patent publication US7105529B2, “Substituted oxindole derivatives as protein tyrosine and as protein serine/threonine kinase inhibitors and compositions and methods of treating chemotherapy and radiation therapy side effects” (SmithKline Beecham Corporation, priority 1997, dated 2006).

What was measured:
[1] = system: HDF normal diploid fibroblast cells; test: FACS assay (cell death), HDF; type: cell-based; conditions: 50% cell death, 72 h
Protocol: These assays allow determination of both cell death and changes in cell cycle profile in cells following treatment of the compound. The assay is performend as follows: • 1. Cells are incubated in DMEM to which 10% FCS has been added in a humidified incubator at 37° C. and 5% by volume of CO2 in air. The cells are innoculated in 6-well plates at a density of 0.5–5×10^5 cells per well. • 2. The test compound is added in serial dilutions 24–36 h after plating in 0.5% DMSO. The plates are then incubated a further 72 h in the presence of the compound. During this time, cells in control cultures undergo at least three cell divisions. • 3. After incubation, the media is collected and cells are harvested by trypsinization. The cells and media are pooled and pelleted by centrifugation. • 4. The cell pellet is fixed in a final volume of 3 mL of 50% ice cold MeOH and incubated for a minimum of 30 min at −20° C. • 5. The cells are pelleted by centrifugation and resuspended in 0.5 mL PBS containing 1%FCS, […] Propidium Iodide (PI) and 5 mg/mL RNase A and incubated 30 min at 37° C. in the dark. • 6. The samples are analysed by flow cytometry using the relative incorporation of PI as a measure of DNA content of each cell. The % Dead cells is recorded as % of events with less than 2N DNA. […] HDF are normal diploid fibroblast cells. RKO are colon adenocarcinoma cells and MES/SA are ovarian carcinoma cells.

c-fms = biological target: T1, c-fms (Homo sapiens, UniProt P07333); test: c-fms protein kinase assay (SPA); type: biochemical; conditions: Table 7, class symbols; read-out: c-fms kinase inhibition IC50
T1 sequence (P07333 539-972 limits assumed): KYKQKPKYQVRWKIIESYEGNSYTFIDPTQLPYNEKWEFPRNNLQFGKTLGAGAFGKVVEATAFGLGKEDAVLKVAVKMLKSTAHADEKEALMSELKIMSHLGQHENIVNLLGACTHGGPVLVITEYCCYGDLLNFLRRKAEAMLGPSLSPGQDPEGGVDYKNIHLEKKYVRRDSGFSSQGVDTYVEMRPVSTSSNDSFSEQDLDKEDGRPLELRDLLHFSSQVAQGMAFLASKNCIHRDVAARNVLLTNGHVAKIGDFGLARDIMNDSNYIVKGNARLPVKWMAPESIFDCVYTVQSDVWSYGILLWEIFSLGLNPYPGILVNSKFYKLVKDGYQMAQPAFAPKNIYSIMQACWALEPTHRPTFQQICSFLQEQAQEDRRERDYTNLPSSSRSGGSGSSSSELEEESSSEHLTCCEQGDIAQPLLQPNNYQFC
Protocol: c-fms protein kinase assays utilized the peptide substrate, biotin-[…]-NH2, as the phosphoryl group acceptor. The c-fms intracellular domain was expressed from a baculovirus expression system, as an amino-terminal GST fusion protein, and purified to homogeneity using Glutathione agarose from Sigma Chemical Co. Maximum activation of the enzyme was achieved by preactivation at room temperature for 120 min in the presence of 100 μM ATP and 15 mM MgCl2, This enzyme stock was diluted to 150 nM prior to using in the assay. Typically assays were performed in white, opaque, 96-well plates in a 45 ul assay volume including 15 ul 6% DMSO, with or without compounds, 15 ul of the preactivated, diluted enzyme, and 15 ul of a substrate mixture. Reactions contained 50 mM HEPES, pH 7.5, 1.7 μM ATP, 15 mM MgCl2, 3 μM peptide, 2.5 mM DTT, 50 mM NaCl and 0.15 uCi/assay [^32P]ATP. The controls were reactions in the presence (negative controls) or absence (positive controls) of 50 mM EDTA. Reactions were allowed to proceed for 90 min at room temperature. The reaction products were quantified using Scintillation Proximity technolgy. […] Plates were sealed and counted in a Packard Topcount scintillation counter. […]

[2] = system: HDF normal diploid fibroblast cells; test: MTT assay, HDF; type: cell-based; conditions: Fibroblast, 72 h
Protocol: Compounds are tested for their ability to inhibit cell proliferation and cell viability. The metabolic conversion of 3-(4,5-dimethylthiazol-2-yl)-2,5-diphenyltetrazolium bromide (MTT, Sigma #M2128) to a reduced form is a commonly used measure of cellular viability. Following is the procedure: Cells are maintained in 75 cm^2 tissue culture flasks until ready for use. The cells are grown and plated for the assay in Dulbecco's modified Eagle's media (DMEM) containing 10% fetal bovine serum. For example, the following cell lines can be used: a) human foreskin fibroblasts (HFF); b) HT29 (human colon carcinoma cell line); c) MDA-MB468 (human breast carcinoma cell line); d) RKO (human colon adenocarcinoma cell line); e) SW620 (human colon carcinoma cell line); f A549 (human lung carcinoma cell line); and g) MIA PACA (human pancreatic carcinoma cell line). Cells are maintained at 37° C. in 10% CO2, 90% humidified air. Cells are plated in 96-well tissue culture plates at the densities listed below. 100 μL of cell suspension is added to each well of the 96-well plate except the top row of the plate which contains no cells and serves as a reference for the spectrophotometer. [table] Cells are incubated overnight in DMEM containing 10% fetal bovine serum at 37° C. in 10% CO2, 90% humidified air prior to dosing. […] Compounds with solubilities of less than 30 μM are dosed at the highest soluble concentration. Stock solutions of compounds are made in 100% dimethyl sulfoxide (DMSO). Stock solutions are diluted in DMEM containing 100 μg/ml gentamicin and 0.3 to 0.6% DMSO at the twice the highest concentration to be placed on the cells. If compounds have been dissolved in DMSO the final concentration of DMSO on the cells is kept below 0.3%. Three-fold serial dilutions are performed on each compound to prepare 10 concentrations of the compound for dosing. 100 μl of diluted compound is added to the 100 μl of media currently on the dish. For each concentration of compound, 2–4 replicate wells are prepared. Cells are returned to incubator and allowed to proliferate in the presence of compound for 72 h before addition of MTT. […] After 4 h incubation the media, compound and MTT mixture is aspirated from the plates and 100 μl of 100% DMSO is added to each well in addition to 25 μl of Sorenson's Buffer (0.1M glycine, 0.1M NaCl, pH 10.5). Quantitation of metabolic reduction of MTT in each plate is performed by reading optical density at 570 nm wavelength on a Molecular Devices UVmax microplate reader. […] HDF are normal diploid fibroblast cells. RKO are colon adenocarcinoma cells and MES/SA are ovarian carcinoma cells.

CDK2 = CDK2 (Homo sapiens, UniProt P24941); test: CDK2 substrate phosphorylation assay; type: biochemical
Protocol: CDK1 and CDK2 were both expressed utilizing a baculovirus expression system and were partially purified to comprise 20–80% of total protein, with no detectable competing reactions present. […] Reactions were terminated with 0.2–2 volumes of either 20% acetic acid or 50–100 mM EDTA buffered to pH 7 (substrate consumption <20%). The buffer employed in enzyme assays was either 30 mM HEPES 7.4 containing 0.15 M NaCl and 5% DMSO, the buffer 50 mM MOPS 7.0 containing 0.15 M NaCl and 5% DMSO, or the buffer 100 mM HEPES pH 7.5 containing 0.1 mg/mL BSA and 5% DMSO. Inhibitors were diluted in 100% DMSO prior to addition into the assay. Detection of peptide phosphorylation was accomplished by scintillation counting following either collection of peptide onto phosphocellulose filters (for reactions stopped with acetic acid), collection of peptide in wells of 96 well plates coated with Streptavidin (Pierce) (reactions were stopped with EDTA), or addition of Avidin coated Scintillant impregnated beads (Scintillation Proximity Assays from Amersham, reactions were stopped with EDTA).
CDK1 and CDK2 were both expressed utilizing a baculovirus expression system and were partially purified to comprise 20–80% of total protein, with no detectable competing reactions present. […]

[3] = system: etoposide-induced alopecia; test: Protection from chemotherapy-induced alopecia in rat pups; type: in vivo, Sprague-Dawley rat; conditions: 6 mg/kg etoposide intraperitoneally
Protocol: Protection from chemotherapy-induced alopecia is determined in 7 day old Sprague-Dawley rat pups. The treatment is carried out by administering the compounds topically to the head of the animal in doses from 0.01 to 10 mg/kg 2 h before and 2 h after the administration of a single dose of 6 mg/kg etoposide intraperitoneally. Six days after dosing, animals are scored visually for hair loss using a grading scale from 1 (complete hair loss) to 4 (no apparent hair loss). In this assay, the prior treatment of the animal with the compound of this invention results in a marked reduction in the severity of alopecia compared to vehicle treated controls. Under the above described conditions of treatment, the compounds of the present invention also protect against other toxicities of etoposide. […] Animals treated with the compounds of the present invention in combination with etoposide, in the schedule indicated above, gain weight normally and even exceed the body weight of control, untreated animals.

| Structure (SMILES) | IC50 [1] [µM] | IC50 [2] [µM] | also measured |
| --- | --- | --- | --- |
| CCC(C)Cc1cccc2c1C(=NNc1ccc(S(N)(=O)=O)cc1)C(=O)N2 (stereo not drawn) [Example 11] | > 5 | – | – |
| O=C1Nc2ccc3ncccc3c2/C1=C/Nc1ccc(CCO)cc1 [Example 32] | – | – | IC50 (c-fms): > 0.1 µM |
| CN(C)S(=O)(=O)c1ccc(NC=C2C(=O)Nc3ccc(-c4cnco4)cc32)cc1 [Example 35] | > 5 | > 5 | – |
| CS(=O)(=O)Cc1ccc(NC=C2C(=O)Nc3ccc4ncsc4c32)cc1 [Example 76, 8-(4-Methylsulfonylmethyl-phenylamino-methylene)-6,8-dihydro-1-thia-3,6-diaza-as-indacen-7-one] | > 5 | > 5 | – |
| CC(C)(CO)CNS(=O)(=O)c1ccc(NC=C2C(=O)Nc3ccc4ncsc4c32)cc1 [Example 77, N-(3-Hydroxy-2,2-dimethyl-propyl)4-[(7-oxo-6,7-dihydro-1-thia-3,6-diaza-as-indacen-8-ylidenemethyl)-amino]-benzenesulfonamide] | > 5 | > 5 | – |
| CNS(=O)(=O)Cc1ccc(NN=C2C(=O)Nc3cc(C)c(O)c(C)c32)cc1 [Example 99] | > 5 | 0.6 to 1 | IC50 (CDK2): 0.051 to 0.1 µM |
| O=C1Nc2ccc3ncsc3c2C1=CNc1ccc2nn[nH]c2c1 [Example 101, 8-(3H-Benzotriazol-5-ylaminomethylene)-6,8-dihydro-1-thia-3,6-diaza-as-indacene-7-one] | > 5 | > 5 | – |
| CC(C)COC(=O)c1ccc2c(c1)C(=CNc1ccc(S(N)(=O)=O)cc1)C(=O)N2 [Example 103, 2-Oxo-3-(4-sulfamoyl-phenylamino-methylene)-2,3-dihydro-1H-indole-5-carboxylic acid isobutyl ester] | – | 1.1 to 5 | – |
| COc1cc([C@@H]2c3cc4c(cc3[C@@H](O[C@@H]3O[C@@H]5CO[C@@H](C)O[C@H]5[C@H](O)[C@H]3O)[C@H]3COC(=O)[C@H]23)OCO4)cc(OC)c1O [etoposide] | – | – | body weight gain, etoposide alone compared to untreated animals [3]: dramatic lack of weight gain |
